Source: patent US20220251039A1, “Diaryl-B-Lactam Compound and Preparation Method and Pharmaceutical Use Thereof” (Fudan University, priority 2016, published 2022)
Entries after “also recorded” stand apart in the source; their conditions may differ.

Tests used:
[1] = system: tubulin; assay: Immunoblotting analysis of polymerized/depolymerized tubulin; format: cell-based, human; details: Hela cells, 6 h
Procedure: After being treated with diluent (0.2% DMSO), tested compound, CA-4 or PTX for 6 h, Hela cells were lysed with microtubulestabilizing buffer, containing 100 mM PIPES, pH 6.8, 1 mM MgCl2, 2 mM EGTA, 0.5% NP-40, 2 M glycerol, 5 μM PTX and protease inhibitors cocktail (Roche), and the lysate was centrifuged at 15,000 rpm for 15 min. Supernatant containing depolymerized tubulin was carefully collected, whereas pellet (polymerized tubulin) was further dissolved in SDS-lysis buffer (Beyotime, China). Equal amounts of supernatant and dissolved pellet were subjected to immunoblotting analysis as described above using a tubulin antibody (Proteintech).

[2] = system: tubulin; assay: Immunofluorescent analysis of tubulin morphology; format: cell-based, human; details: SKOV-3 cells, 24 h
Procedure: After treatment with diluent (0.2% DMSO) or tested compounds at indicated concentrations for 24 h, SKOV-3 cells were fixed with methanol, permeabilized with 0.1% Triton X-100 in PBS and blocked by goat serum. Then the cells were incubated with a-tubulin antibody at 4° C. overnight, followed by incubation with Alexa 488 labeled secondary antibody (Jackson ImmunoResearch) at RT for 1 h. After being stained with DAPI, cells were examined and photographed with a Leica SP5 co-focal fluorescence microscope.

[3] = system: MDA-MB-231 cells; assay: Colony formation assay; format: cell-based, human; details: 48 h treatment, 7-10 days growth
Procedure: 1000 MDA-MB-231 cells per well were seeded into 6-well plate at a single cell density and were cultured at 37° C. for 48 h. After being treated with indicated concentrations of 69, 70 and 97, CA-4 as positive control, or diluent (0.2% DMSO) as negative control for 48 h, the agents containing medium was replaced by fresh medium to allow cell growth for additional 7-10 days. Then the cells were fixed with methanol and stained with gentian violet for 30 min. The number of colonies which consisted of more than 50 cells were counted. The results were indicated as mean values from three independent determinations.

[4] = system: p-histone H3, cyclin B1 and BuBR1; assay: Cell cycle associated proteins assay; format: cell-based, human; details: HeLa cells, 24 h, Western blot and qPCR
Procedure: A. HeLa cells were treated with 69, 70, 97 or DMSO for 24 h. After being harvested, the cells were lysed, and the concentrations of total protein were determined by BCA protein assay kit (Beyotime, China). […] The membrane was blocked with 5% BSA in TBST for 1.5 h, then incubated overnight with specific primary antibodies (Proteintech) at 4° C. After being washed three times by TBST, the membrane was incubated with specific secondary antibodies (Abnova, Taipei, China) at room temperature for 2 h. Finally, chemiluminescent reagents (Millipore) were employed to detect the protein bands.
(§1) B. Quantitative PCR assay: HeLa cells were treated with 69, 70 or 97. The expression level of mRNA of target proteins was tested with qPCR kit (Takara).

[5] = system: cellular apoptosis; assay: Cell apoptosis analysis (Annexin V/PI); format: cell-based; details: 48 h, Annexin-V/PI flow cytometry
Procedure: Cell apoptosis was detected using FITC Annexin V Apoptosis Detection Kit (BD Biosciences) according to manufacturer's instructions. Briefly, cells were incubated with indicated concentrations of 69, 70 and 97, CA-4 as positive control or diluent (0.2% DMSO) as negative control for 48 h. Then the cells were harvested, washed twice with PBS, and re-suspended in binding buffer. After being stained with Annexin-V and PI for 15 min in the dark place, cells were subjected to flow cytometry (Cytomics FC 500 MPL, Beckman Coulter) analysis. The results were indicated as mean values from three independent determinations.

[6] = system: Bax, p53 and cleaved-PARP; assay: Expression level of apoptosis associated proteins; format: cell-based, human; details: HeLa cells, Western blot and qPCR
Procedure: A. Western blotting: After being treated with candidate compound, cells were harvested and lysed. Then, the lysate was isolated by ultracentrifuge and quantified by BCA assay according to the protocol. After being denatured, equivalent protein of each sample was separated by SDS-PAGE gel and wet-transferred onto […] nitrocellulose membrane. After being blocked by PBS containing 5% skim milk, the membrane was incubated with primary antibody at 4° C. overnight and secondary antibody at room temperature for 2 h and then visualized by enhanced chemiluminescence kit (Thermo Fisher, USA), sequentially.
as §1

[7] = system: KM mice; assay: Acute toxicity assay; format: in vivo
Procedure: KM mice were housed individually in a specific pathogen free facility. Groups of mice (n=10 per group, half male and half female) were injected intraperitoneally once with various dosages of 69 (95, 70, 50, 35, 25 mg/kg), 70 (500, 425, 350, 275, 200 mg/kg), 97 (275, 200, 150, 125 and 100 mg/kg) or vehicle (8.3% cremohorp EL and 8.3% alcohol in PBS) as negative control, respectively. 69, 70 and 97 was dissolved in cremeohore EL and alcohol mixture (1:1, v/v) and further diluted with PBS (1:5, v/v). The death of mice were monitored daily and recorded up to 14 days after injection.

[8] = system: A2780 cells; assay: Xenografts tumor growth assay in nude mice; format: in vivo, Balb/c nude mice; details: A2780 xenograft
Procedure: 6 weeks old female Balb/c nude mice were purchased from Shanghai Slac Laboratory Animal Co. Ltd. (Shanghai, China). 2*10^6 A2780 cells suspended in 0.2 mL PBS per mouse was injected subcutaneously into the nude mice. […] Administration of agents or vehicle, or agents and measurement of tumor volumes with a digital caliper was done once every 2 days. Tumor volumes were calculated as volume=shortest diameter (W)^2*longest diameter (L)*0.52. When the average tumor volumes of vehicle treated group reached 2000 mm^3 in diameter, the mice were sacrificed and the tumors were isolated and weighed. Visceral organs of the mice as well as solid tumors were further analyzed by H&E staining.

COc1ccc([C@H]2[C@H](C)C(=O)N2c2cc(OC)c(OC)c(OC)c2)cc1O [Compound 97, (3S,4R)-4-(3-hydroxy-4-methoxyphenyl)-3-methyl-1-(3,4,5-trimethoxyphenyl)azetidin-2-one]
polymerized tubulin (immunoblotting) [1]: significantly inhibit tubulin aggregation; also recorded: dramatically reduction of polymerized tubulin | tubulin assembly (immunofluorescence) [2]: significantly inhibit tubulin aggregation; also recorded: strongly inhibit tubulin assembly in cancer cells | colony formation [3]: significantly inhibit the formation of colonies of cancer cells | expression of p-histone H3, cyclin B1 and BuBR1 [4]: significantly promote the expression of phosphorylated histone H3, cyclin B1, and mitotic checkpoint protein BuBR1 | cellular apoptosis [5]: significantly promote apoptosis; also recorded: significantly induce cellular apoptosis | expression of Bax, p53 and cleaved-PARP [6]: significantly promote the expression of the proapoptotic protein Bax, the tumor suppressor gene p53, and the cleaved DNA repair enzyme; also recorded: significantly induce the expression of Bax, p53 and cleaved-PARP | No. of dead mice 5-14 days ([7]; 100 mg/kg i.p. once): 0 | No. of dead mice 1 day ([7]; 100 mg/kg i.p. once): 0 | No. of dead mice 2 days ([7]; 100 mg/kg i.p. once): 0 | No. of dead mice 3 days ([7]; 100 mg/kg i.p. once): 1 | No. of dead mice 4 days ([7]; 100 mg/kg i.p. once): 0 | No. of dead mice Total death ([7]; 100 mg/kg i.p. once): 1 | Survival (%) on day 14 ([7]; 100 mg/kg i.p. once): 90% | No. of dead mice 5-14 days ([7]; 125 mg/kg i.p. once): 0 | No. of dead mice 1 day ([7]; 125 mg/kg i.p. once): 0 | No. of dead mice 2 days ([7]; 125 mg/kg i.p. once): 2 | No. of dead mice 3 days ([7]; 125 mg/kg i.p. once): 1 | No. of dead mice 4 days ([7]; 125 mg/kg i.p. once): 0 | No. of dead mice Total death ([7]; 125 mg/kg i.p. once): 3 | Survival (%) on day 14 ([7]; 125 mg/kg i.p. once): 70% | No. of dead mice 5-14 days ([7]; 150 mg/kg i.p. once): 0 | No. of dead mice 1 day ([7]; 150 mg/kg i.p. once): 2 | No. of dead mice 2 days ([7]; 150 mg/kg i.p. once): 4 | No. of dead mice 3 days ([7]; 150 mg/kg i.p. once): 0 | No. of dead mice 4 days ([7]; 150 mg/kg i.p. once): 0 | No. of dead mice Total death ([7]; 150 mg/kg i.p. once): 6 | Survival (%) on day 14 ([7]; 150 mg/kg i.p. once): 40% | No. of dead mice 5-14 days ([7]; 200 mg/kg i.p. once): 0 | No. of dead mice 1 day ([7]; 200 mg/kg i.p. once): 1 | No. of dead mice 2 days ([7]; 200 mg/kg i.p. once): 4 | No. of dead mice 3 days ([7]; 200 mg/kg i.p. once): 2 | No. of dead mice 4 days ([7]; 200 mg/kg i.p. once): 0 | No. of dead mice Total death ([7]; 200 mg/kg i.p. once): 7 | Survival (%) on day 14 ([7]; 200 mg/kg i.p. once): 30% | No. of dead mice 5-14 days ([7]; 275 mg/kg i.p. once): 0 | No. of dead mice 1 day ([7]; 275 mg/kg i.p. once): 2 | No. of dead mice 2 days ([7]; 275 mg/kg i.p. once): 4 | No. of dead mice 3 days ([7]; 275 mg/kg i.p. once): 2 | No. of dead mice 4 days ([7]; 275 mg/kg i.p. once): 1 | No. of dead mice Total death ([7]; 275 mg/kg i.p. once): 9 | Survival (%) on day 14 ([7]; 275 mg/kg i.p. once): 10% | tumor growth in vivo ([8]; i.p. once every 2 days, 69 7.5 mg/kg, 70 12.5 mg/kg, 97 4 or 8 mg/kg): significantly inhibit tumor growth in vivo; also recorded: anti-tumor activities in vivo | H&E staining of liver, kidney and spleen ([8]; treated groups): no abnormal areas are observed in tissue staining of liver, kidney and spleen; also recorded: no detectable abnormalities were observed in liver, kidney and spleen | H&E staining of tumor sections (necrosis) ([8]; treated groups): cause tumor tissue to produce necrotic areas; also recorded: extensive areas of necrosis or cell death
